In patent US20190010167A1, “INHIBITORS OF THE MENIN-MLL INTERACTION” (Vitae Pharmaceuticals, Inc., priority 2015, published 2019):

Biological target: T1, wild-type menin / MLL-AF9 fusion protein (Homo sapiens, UniProt O00255)
T1 construct: made in house; host or cells: E. coli (menin); HEK293 cleared lysate (MLL-AF9-FLAG)
T1 sequence (O00255 1-610): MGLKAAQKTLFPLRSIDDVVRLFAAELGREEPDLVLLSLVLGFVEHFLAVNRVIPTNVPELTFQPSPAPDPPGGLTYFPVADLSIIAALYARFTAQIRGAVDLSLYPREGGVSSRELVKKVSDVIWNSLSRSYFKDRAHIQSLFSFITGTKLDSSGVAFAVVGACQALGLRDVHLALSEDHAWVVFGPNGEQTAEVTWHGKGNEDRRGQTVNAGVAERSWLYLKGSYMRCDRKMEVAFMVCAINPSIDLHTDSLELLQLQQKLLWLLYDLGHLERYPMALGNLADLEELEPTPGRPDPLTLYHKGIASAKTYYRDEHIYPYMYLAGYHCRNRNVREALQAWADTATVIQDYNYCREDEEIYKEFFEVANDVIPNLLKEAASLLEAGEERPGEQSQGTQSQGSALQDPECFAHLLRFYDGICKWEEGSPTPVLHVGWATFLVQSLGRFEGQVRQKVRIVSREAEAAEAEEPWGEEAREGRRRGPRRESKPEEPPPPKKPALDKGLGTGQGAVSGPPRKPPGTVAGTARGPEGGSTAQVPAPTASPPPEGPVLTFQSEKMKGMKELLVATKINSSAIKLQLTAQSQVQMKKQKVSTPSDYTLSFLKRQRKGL
Experiment: AlphaLISA menin/MLL binding assay, wild-type menin (Assay 1)
Settings: biotinylated wild-type menin 5 nM, MLL-AF9-FLAG lysate
Method: Potencies of inhibitor compounds against menin/MLL binding were assessed by AlphaLISA assay using biotinylated (1) wild-type menin or (2) mutated menin (described in Nature (2012) Vol. 482, pp. 542-548) and MLL-AF9 fusion protein bearing a FLAG epitope at its C-terminus. Menin proteins were expressed in E. coli and covalently modified with biotin using EZ-Link™ Sulfo-NHS-Biotin (ThermoFisher Cat. No. 21217) according to manufacturer's protocol. MLL1-1,396 fused to AF91-92 and the C-terminal FLAG peptide was expressed in HEK293 cells and used as a lysate cleared at 21,000×g for 10 min.
Compounds (2 μL of solutions in DMSO) were dispensed in white 96-well half-area plates (Corning Cat. No. 3693) and incubated for 30 min at RT with 5 nM biotinylated menin and appropriate amount of MLL-AF9-FLAG lysate in 40 μL of 50 mM Tris-HCl buffer pH 7.4 containing 5% (v/v) DMSO, 50 mM NaCl, 0.01% (w/v) bovine serum albumin (BSA) and 1 mM DTT. To this incubation mixture, 40 μl of AlphaLISA anti-FLAG acceptor (PerkinElmer Cat. No. AL112C) and streptavidin donor (PerkinElmer Cat. No. 6760002) beads (10 μg/mL each) was added and incubation continued at RT for 60 min. Alpha (amplified luminescent proximity homogeneous assay) signal was measured on an Envision multi-label plate reader at the end of the incubation. All steps were conducted under dim fluorescent light.
These percent inhibition values were regressed against compound concentrations in the assay using four parameter logit non-linear curve fitting (XLFit, IDBS). The IC50 values were derived from the curve fitting as inflection points on the dose-response curves and are set out in Table 1 below.

SMILES	IC50 [nM]
O=C1N(Cc2ccccc2)CCC12CCN(c1ncnc3sc(CC(F)(F)F)cc13)C2 (stereo not drawn) [Example 59, 2-benzyl-7-(6-(2,2,2-trifluoroethyl)thieno[2,3-d]pyrimidin-4-yl)-2,7-diazaspiro[4.4]nonan-1-one]	≥ 1000
FC(F)(F)Cc1cc2c(N3CCC4(CC3)CN(CC3CCCO3)C4)ncnc2s1 (stereo not drawn) [Example 4, 4-(2-((tetrahydrofuran-2-yl)methyl)-2,7-diazaspiro[3.5]nonan-7-yl)-6-(2,2,2-trifluoroethyl)thieno[2,3-d]pyrimidine]	≥ 1000
FC(F)(F)Cc1cc2c(N3CC4(CN(CC5COC5)C4)C3)ncnc2s1 [Example 73, 4-(6-(oxetan-3-ylmethyl)-2,6-diazaspiro[3.3]heptan-2-yl)-6-(2,2,2-trifluoroethyl)thieno[2,3-d]pyrimidine]	≥ 1000
CC(C)N1CC2(CCN(c3ncnc4sc(CC(F)(F)F)nc34)CC2)C1 [Example 80, 7-(2-isopropyl-2,7-diazaspiro[3.5]nonan-7-yl)-2-(2,2,2-trifluoroethyl)thiazolo[5,4-d]pyrimidine]	≥ 1000
CC(C)(O)CN1CC2(CCN(c3ncnc4sc(CC(F)(F)F)cc34)CC2)C1 [Example 15, 2-methyl-1-(7-(6-(2,2,2-trifluoroethyl)thieno[2,3-d]pyrimidin-4-yl)-2,7-diazaspiro[3.5]nonan-2-yl)propan-2-ol]	≥ 1000
FC(F)(F)Cc1cc2c(N3CCC4(CC3)CN(CC3CCCOC3)C4)ncnc2s1 (stereo not drawn) [Example 7, 4-(2-((tetrahydro-2H-pyran-3-yl)methyl)-2,7-diazaspiro[3.5]nonan-7-yl)-6-(2,2,2-trifluoroethyl)thieno[2,3-d]pyrimidine]	≥ 1000
FC(F)(F)Cc1ccc2nccc(N3CCC4(CC3)CN(CC3CC3)C4)c2c1 [Example 87, 4-(2-(cyclopropylmethyl)-2,7-diazaspiro[3.5]nonan-7-yl)-6-(2,2,2-trifluoroethyl)quinoline]	≥ 1000
FC(F)(F)Cc1cc2c(N3CCC4(CCN(Cc5ccccc5)CC4)C3)ncnc2s1 [Example 116, 4-(8-benzyl-2,8-diazaspiro[4.5]decan-2-yl)-6-(2,2,2-trifluoroethyl)thieno[2,3-d]pyrimidine]	≥ 1000
N#Cc1cccc(CN2CCC3(CCN(c4ncnc5sc(CC(F)(F)F)cc45)C3)C2)c1 (stereo not drawn) [Example 35, 3-((7-(6-(2,2,2-Trifluoroethyl)thieno[2,3-d]pyrimidin-4-yl)-2,7-diazaspiro[4.4]nonan-2-yl)methyl)benzonitrile]	100 to 1000
FC(F)(F)Cc1cc2c(N3CCC4(CC3)CN(C3CCOCC3)C4)ncnc2s1 [Example 8, 4-(2-(tetrahydro-2H-pyran-4-yl)-2,7-diazaspiro[3.5]nonan-7-yl)-6-(2,2,2-trifluoroethyl)thieno[2,3-d]pyrimidine]	≥ 1000
CC(C)CN1CC2(CCN(c3ccnc4ccc(CC(F)(F)F)cc34)CC2)C1 [Example 85, 4-(2-isobutyl-2,7-diazaspiro[3.5]nonan-7-yl)-6-(2,2,2-trifluoroethyl)quinoline]	≥ 1000
CC(C)CN1CC2(CCN(c3ncnc4ccc(CC(F)(F)F)cc34)CC2)C1 [Example 89, 4-(2-isobutyl-2,7-diazaspiro[3.5]nonan-7-yl)-6-(2,2,2-trifluoroethyl) quinazoline]	≥ 1000

Other lines, results leading:

IC50 [nM]	SMILES
100 to 1000	O=C(C1CCCCN1)N1CC2(C1)CN(c1ncnc3sc(CC(F)(F)F)cc13)C2 (stereo not drawn) [Example 79, piperidin-2-yl(6-(6-(2,2,2-trifluoroethyl)thieno[2,3-d]pyrimidin-4-yl)-2,6-diazaspiro[3.3]heptan-2-yl)methanone]
100 to 1000	FC(F)(F)Cc1cc2c(N3CCC4(CC3)CN(CC3CC(F)(F)C3)C4)ncnc2s1 [Example 14, 4-(2-((3,3-difluorocyclobutyl)methyl)-2,7-diazaspiro[3.5]nonan-7-yl)-6-(2,2,2-trifluoroethyl)thieno[2,3-d]pyrimidine]
100 to 1000	FC(F)(F)Cc1cc2c(N3CCC4(CC3)CN(CC3CCC(F)(F)CC3)C4)ncnc2s1 [Example 12, 4-(2((4,4-difluorocyclohexyl)methyl)-2,7-diazaspiro[3.5]nonan-7-yl)-6-(2,2,2-trifluoroethyl)thieno[2,3-d]pyrimidine]
100 to 1000	Cc1c(CN2CC[C@@]3(CCN(c4ccnc5ccc(CC(F)(F)F)cc45)C3)C2)ccc2[nH]c(C#N)cc12 (single isomer, unassigned) [Example 86b, 4-methyl-5-((7-(6-(2,2,2-trifluoroethyl)quinolin-4-yl)-2,7-diazaspiro[4.4]nonan-2-yl)methyl)-1H-indole-2-carbonitrile]
100 to 1000	CC(C)(N)CC(=O)N1CC2(C1)CN(c1ncnc3sc(CC(F)(F)F)cc13)C2 [Example 77, 3-amino-3-methyl-1-(6-(6-(2,2,2-trifluoroethyl)thieno[2,3-d]pyrimidin-4-yl)-2,6-diazaspiro[3.3]heptan-2-yl)butan-1-one]
100 to 1000	CCC(C)CN1CCC2(CC1)CN(c1ncnc3sc(CC(F)(F)F)cc13)C2 (stereo not drawn) [Example 100, 4-(7-(2-methylbutyl)-2,7-diazaspiro[3.5]nonan-2-yl)-6-(2,2,2-trifluoroethyl)thieno[2,3-d]pyrimidine]
100 to 1000	CC1(C)CCC(CN2CC3(C2)CN(c2ncnc4sc(CC(F)(F)F)cc24)C3)CC1 [Example 64, 4-(6-((4,4-dimethylcyclohexyl)methyl)-2,6-diazaspiro[3.3]heptan-2-yl)-6-(2,2,2-trifluoroethyl)thieno[2,3-d]pyrimidine]
100 to 1000	CC(=O)Nc1ccc(CN2CCC3(CC2)CN(c2ncnc4sc(CC(F)(F)F)cc24)C3)cc1 [Example 103, N-(4-((2-(6-(2,2,2-trifluoroethyl)thieno[2,3-d]pyrimidin-4-yl)-2,7-diazaspiro[3.5]nonan-7-yl)methyl)phenyl)acetamide]
100 to 1000	Cc1c(CN2CC3(C2)CN(c2ncnc4sc(CC(F)(F)F)cc24)C3)ccc2[nH]c(C#N)cc12 [Example 67, 4-methyl-5-((6-(6-(2,2,2-trifluoroethyl)thieno[2,3-d]pyrimidin-4-yl)-2,6-diazaspiro[3.3]heptan-2-yl)methyl)-1H-indole-2-carbonitrile]
100 to 1000	FC(F)(F)Cc1cc2c(N3CCC4(CCN(CC5CCOCC5)CC4)C3)ncnc2s1 [Example 115, 4-(8-((tetrahydro-2H-pyran-4-yl)methyl)-2,8-diazaspiro[4.5]decan-2-yl)-6-(2,2,2-trifluoroethyl)thieno[2,3-d]pyrimidine]
100 to 1000	CS(=O)(=O)c1ccc(CC(=O)N2CC3(C2)CN(c2ncnc4sc(CC(F)(F)F)cc24)C3)cc1 [Example 62, 2-(4-(methylsulfonyl)phenyl)-1-(6-(6-(2,2,2-trifluoroethyl)thieno[2,3-d]pyrimidin-4-yl)-2,6-diazaspiro[3.3]heptan-2-yl)ethan-1-one]
100 to 1000	CC(=O)N[C@H]1CC[C@@H](CN2CCC3(CCN(c4ncnc5sc(CC(F)(F)F)cc45)C3)C2)CC1 (stereo partly drawn) [Example 50, N-((1s,4s)-4-((7-(6-(2,2,2-Trifluoroethyl)thieno[2,3-d]pyrimidin-4-yl)-2,7-diazaspiro[4.4]nonan-2-yl)methyl)cyclohexyl)acetamide]
100 to 1000	O=C1CC2(CCN(Cc3ccc4[nH]c(=O)[nH]c4c3)C2)CN1c1ncnc2sc(CC(F)(F)F)cc12 (stereo not drawn) [Example 118, 7-((2-oxo-2,3-dihydro-1H-benzoldlimidazol-5-yl)methyl)-2-(6-(2,2,2-trifluoroethyl)thieno[2,3-d]pyrimidin-4-yl)-2,7-diazaspiro[4.4]nonan-3-one]
100 to 1000	FC(F)(F)Cc1cc2c(N3CCC4(CC3)CN(C3CCCCC3)C4)ncnc2s1 [Example 9, 4-(2-cyclohexyl-2,7-diazaspiro[3.5]nonan-7-yl)-6-(2,2,2-trifluoroethyl)thieno[2,3-d]pyrimidine]
100 to 1000	Cc1c(CN2CC3(CCN(c4ncnc5sc(CC(F)(F)F)cc45)CC3)C2)ccc2[nH]c(C#N)cc12 [Example 21, 4-methyl-5-((7-(6-(2,2,2-trifluoroethyl)thieno[2,3-d]pyrimidin-4-yl)-2,7-diazaspiro[3.5]nonan-2-yl)methyl)-1H-indole-2-carbonitrile]
